Reference: patent US8466286B2, “SMMR (small molecule metabolite reporters) for use as in vivo glucose biosensors” (Cercacor Laboratories, Inc., priority 2003, dated 2013)
Like-named read-outs stand apart in the source and are kept apart here.

What was measured:
[1] = Glucose response rate in stirred cuvette, pH 8 phosphate buffer; conditions: 100 μL of 300 mg/dL glucose in pH 8 buffer; ex 340 nm, em 440 nm; read every 15 seconds
Procedure: Arg-327 unprotected batches were prepared. One batch was supplied as a yellow powder and the other as a concentrated solution in deuterated methanol. A small sample of these materials was taken and dissolved in 3 ml of pH 8 phosphate buffer. The fluorescence of these materials was excited at 340 nm and the emission monitored at 440 nm. The fluorescence was monitored every 15 seconds in a stirred cuvette. After about 3 minutes 100 μL of 300 mg/dL glucose in pH 8 buffer was added. […] Similar results were obtained for both samples.

[2] = for response to glucose in vitro: addition of glucose
PHK cells = assay: In-vitro detection in PHK cells loaded with reporter, two-photon fluorescent imaging; format: cell-based; conditions: 50 micromolar reporter; glucose increased to 300 mg/dl; EM 440 nm, 2P excitation 705 nm
Procedure: PHK cells were loaded with AF-327d reporter, at 50 micromolar concentration, in buffer. Fluorescence was measured using a two-photon fluorescent imaging system at approximately EM 440 nm, and excitation at (2P) 705 nm. Pictures taken 10 minutes apart show a slight change in fluorescence intensity upon increasing the glucose concentration to 300 mg/dl in the cell buffer medium. This is seen clearly, as a 20% decrease in time course of fluorescence.

living cells = assay: Membrane potential (Rh123 fluorescence quenching) to track D-glucose in living cells; format: cell-based; conditions: glucose 0 to 5 mg/dL (0.28 mM)
Procedure: The fluorescence quenching is an indication of membrane potential changes within living cells with respect to an increase in glucose concentration, as shown in FIG. 17 (glucose from 0 to 400 mg/dL) and FIG. 18 (glucose from 0 to 66 mg/dL).
The saturation point value was expected to be between 0.0 and 2 mg/dL.

[3] = glucose zero to 300 mg/dL, in vitro

Compound	response to glucose in vitro [2]	increase of fluorescence intensity with glucose [2, 3]	other results
O=C(Nc1ccc2c(C(F)(F)F)cc(=O)oc2c1)c1ccc(B(O)O)cc1 [AF-327d]	stronger response to glucose than other published compounds	60%	glucose response rate (fluorescence after glucose addition) [1]: increased immediately; change of absorption spectrum at the excitation wavelength as a function of glucose concentration ([2]; excitation 375 nm): less than 10%; increase of fluorescence intensity with glucose ([2]; glucose range of 200 mg/dL, excitation 375 nm, emission 400-550 nm): at least 40%; decrease in time course of fluorescence (PHK cells): 20%
O=C(Nc1ccc([N+](=O)[O-])cc1)c1ccc(B(O)O)cc1 [AF-339]	weaker than AF-327		
O=C(/C=C/c1ccc(B(O)O)cc1)c1cc2ccccc2oc1=O [AF-343]	No fluorescence or glucose effect		
O=C(Nc1ccc2oc(=O)c3ccccc3c2c1)c1ccc(B(O)O)cc1 [AF-345]		30%	
COC(=O)c1ccccc1-c1c2ccc(=N)cc-2oc2cc(N)ccc12.Cl [Rh123]			Rh123 fluorescence with increasing glucose levels (living cells): approximate linear decrease
